Like-named read-outs stand apart in the source and are kept apart here.
Experiments:
Type in all cases: in vivo
[1] = system: Digitaria sanguinalis (DIGSA); assay: Pre-emergence herbicidal action against DIGSA
Summary of the method: (§1)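 Pre-emergence soil-surface spray of compound, formulated as wettable powder or emulsion concentrate, in aqueous suspension or emulsion with 0.5% additive (600 l/ha; rate 320 g/ha or less). Activity rated visually after roughly 3 weeks in the greenhouse as a percentage of untreated controls, 0% meaning no difference.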

[2] = system: Amaranthus retroflexus (AMARE); assay: Pre-emergence herbicidal action against AMARE; settings: visual scoring after about 3 weeks vs untreated controls
Summary of the method: as §1

Lolium rigidum (LOLRI) [3] = assay: Post-emergence herbicidal action against LOLRI
Summary of the method: (§2)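 Values are percent visual activity (0% like control, 100% plants dead) after about 3 weeks in the greenhouse. Treatment: post-emergence spray at one-leaf stage, 600 l/ha spray volume, 0.5% additive, doses 320 g/ha or lower.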

[4] = system: Alopecurus myosuroides (ALOMY); assay: Pre-emergence herbicidal action against ALOMY; settings: scored visually after about 3 weeks, 100% = plants have died
Summary of the method: as §1

[5] = system: Digitaria sanguinalis (DIGSA); assay: Post-emergence herbicidal action against DIGSA; settings: visual rating about 3 weeks after treatment
Summary of the method: as §2

Setaria viridis (SETVI) [6] = assay: Post-emergence herbicidal action against SETVI
Summary of the method: as §2

Avena fatua (AVEFA) [7] = assay: Pre-emergence herbicidal action against AVEFA; settings: visual scoring after about 3 weeks vs untreated controls
Summary of the method: as §1

[8] = system: Verconica persica (VERPE); assay: Post-emergence herbicidal action against VERPE
Summary of the method: as §2

[9] = system: Alopecurus myosuroides (ALOMY); assay: Post-emergence herbicidal action against ALOMY; settings: visual rating about 3 weeks after treatment vs untreated controls (100% = plants have died, 0% = like control plants)
Summary of the method: as §2

[10] = system: Echinochloa crus-galli (ECHCG); assay: Post-emergence herbicidal action against ECHCG
Summary of the method: as §2

Setaria viridis (SETVI) [11] = assay: Pre-emergence herbicidal action against SETVI
Summary of the method: as §1

[12] = system: Polygonum convolvulus (POLCO); assay: Pre-emergence herbicidal action against POLCO
Summary of the method: as §1

Oryza sativa (ORYSA) = settings: crop plant compatibility
Summary of the method: (§3)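 Greenhouse crops in sandy loam sprayed post-emergence at the one-leaf stage, 2–3 weeks after sowing, with WP or EC formulations in water plus 0.5% additive at 600 l/ha. Damage rated visually about 3 weeks later versus untreated controls (0% = like control, 100% = dead); suffixes a–c denote different doses.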

[13] = system: Polygonum convolvulus (POLCO); assay: Post-emergence herbicidal action against POLCO
Summary of the method: as §2

[14] = system: Verconica persica (VERPE); assay: Pre-emergence herbicidal action against VERPE; settings: dosage 320 g/ha
Summary of the method: as §1

[15] = system: Echinochloa crus-galli (ECHCG); assay: Pre-emergence herbicidal action against ECHCG; settings: dosage 320 g/ha
Summary of the method: as §1

Lolium rigidum (LOLRI) [16] = assay: Pre-emergence herbicidal action against LOLRI; settings: dosage 320 g/ha
Summary of the method: as §1

[17] = system: Pharbitis purpurea (PHBPU); assay: Pre-emergence herbicidal action against PHBPU; settings: dosage 320 g/ha
Summary of the method: as §1

[18] = system: Pharbitis purpurea (PHBPU); assay: Post-emergence herbicidal action against PHBPU
Summary of the method: as §2

Zea mays (ZEAMX) [19] = settings: pre-emergence, 80 g/ha, crop plant compatibility, in comparison to untreated controls
Summary of the method: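 Scoring: visual, % of untreated control, about 3 weeks after a pre-emergence application to the soil surface. Application used WP or EC formulations diluted in water with 0.5% additive at 600 l/ha; dosage levels are marked by suffixes a, b and c.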

[20] = system: Amaranthus retroflexus (AMARE); assay: Post-emergence herbicidal action against AMARE
Summary of the method: as §2

[21] = system: Matricaria inodora (MATIN); assay: Pre-emergence herbicidal action against MATIN; settings: dosage 320 g/ha
Summary of the method: as §1

Viola tricolor (VIOTR) [22] = assay: Post-emergence herbicidal action against VIOTR
Summary of the method: as §2

Viola tricolor (VIOTR) [23] = assay: Pre-emergence herbicidal action against VIOTR
Summary of the method: as §1

Zea mays (ZEAMX) [24] = settings: 20 g/ha, ZEAMX, effect in comparison to untreated controls
Summary of the method: as §3

Avena fatua (AVEFA) [25] = assay: Post-emergence herbicidal action against AVEFA; settings: 80 g/ha, visual rating about 3 weeks after treatment
Summary of the method: as §2

[26] = system: Abutilon theophrasti (ABUTH); assay: Post-emergence herbicidal action against ABUTH; settings: 80 g/ha, visual rating about 3 weeks after treatment vs untreated controls (100% = plants have died, 0% = like control plants)
Summary of the method: as §2

[27] = 80 g/ha, visual scoring after about 3 weeks vs untreated controls
[28] = 80 g/ha, effect in comparison to untreated controls
[29] = 80 g/ha, visual rating about 3 weeks after treatment vs untreated controls (100% = plants have died, 0% = like control plants)

Structure (SMILES): COC(=O)CCOC(=O)COc1nn(-c2ccccn2)c(-c2ccc(F)nc2)c1Br [Example I-247]
- Pre-emergence action against DIGSA in % [1, 27]: 100%
- Pre-emergence action against DIGSA in % ([1]; dosage 320 g/ha): 100%
- Pre-emergence action against AMARE in % ([2]; 80 g/ha): 80%
- Pre-emergence action against AMARE in % ([2]; 320 g/ha): 100%
- Post-emergence action against LOLRI in % (Lolium rigidum (LOLRI) [3]; dosage 320 g/ha): 80%
- Pre-emergence action against ALOMY ([4]; 80 g/ha): 80%
- Pre-emergence action against ALOMY ([4]; 320 g/ha): 100%
- Post-emergence action against DIGSA in % ([5]; 80 g/ha): 80%
- Post-emergence action against DIGSA in % ([5]; 320 g/ha): 80%
- Post-emergence action against SETVI in % (Setaria viridis (SETVI) [6]; dosage 320 g/ha): 80%
- Pre-emergence action against AVEFA in % (Avena fatua (AVEFA) [7]; 320 g/ha): 80%
- Post-emergence action against VERPE in % ([8]; 320 g/ha, VERPE): 80%
- Post-emergence action against VERPE in % ([8]; dosage 80 g/ha): 80%
- Post-emergence action against ALOMY in % ([9]; 320 g/ha): 80%
- Post-emergence action against ECHCG in % ([10]; dosage 80 g/ha): 80%
- Post-emergence action against ECHCG in % ([10]; dosage 320 g/ha): 80%
- Pre-emergence action against SETVI in % (Setaria viridis (SETVI) [11]; dosage 320 g/ha): 100%
- Pre-emergence action against POLCO in % ([12]; dosage 320 g/ha): 90%
- Post-emergence action against ORYSA in % (Oryza sativa (ORYSA); [28]): 10%
- Post-emergence action against POLCO in % ([13]; dosage 80 g/ha): 80%
- Post-emergence action against POLCO in % ([13]; dosage 320 g/ha): 80%
- Pre-emergence action against VERPE in % [14]: 90%
- Pre-emergence action against ECHCG in % [15]: 100%
- Pre-emergence action against LOLRI in % (Lolium rigidum (LOLRI) [16]): 100%
- Pre-emergence action against PHBPU in % [17]: 80%
- Post-emergence action against PHBPU in % ([18]; dosage 80 g/ha): 90%
- Post-emergence action against PHBPU in % ([18]; dosage 320 g/ha): 90%
- Pre-emergence action against ZEAMX in % (Zea mays (ZEAMX) [19]): 20%
- Post-emergence action against AMARE in % [20, 29]: 80%
- Post-emergence action against AMARE in % ([20]; 320 g/ha, visual rating about 3 weeks after treatment): 80%
- Pre-emergence action against MATIN in % [21]: 90%
- Post-emergence action against VIOTR in % (Viola tricolor (VIOTR) [22]; 80 g/ha): 80%
- Post-emergence action against VIOTR in % (Viola tricolor (VIOTR) [22]; 320 g/ha): 80%

Structure (SMILES): COC(=O)[C@@H](C)Oc1nn(-c2ccccn2)c(-c2ccnc(F)c2)c1Cl [Example I-19]
- Pre-emergence action against DIGSA in % [1, 27]: 100%
- Pre-emergence action against DIGSA in % ([1]; dosage 320 g/ha): 100%
- Pre-emergence action against AMARE in % ([2]; 80 g/ha): 100%
- Pre-emergence action against AMARE in % ([2]; 320 g/ha): 100%
- Post-emergence action against LOLRI in % (Lolium rigidum (LOLRI) [3]; dosage 80 g/ha): 80%
- Pre-emergence action against ALOMY ([4]; 80 g/ha): 100%
- Pre-emergence action against ALOMY ([4]; 320 g/ha): 100%
- Post-emergence action against DIGSA in % ([5]; 80 g/ha): 80%
- Post-emergence action against SETVI in % (Setaria viridis (SETVI) [6]; dosage 80 g/ha): 80%
- Pre-emergence action against AVEFA in % (Avena fatua (AVEFA) [7]; 80 g/ha): 80%
- Pre-emergence action against AVEFA in % (Avena fatua (AVEFA) [7]; 320 g/ha): 100%
- Post-emergence action against ALOMY in % ([9]; 80 g/ha): 100%
- Pre-emergence action against SETVI in % (Setaria viridis (SETVI) [11]; dosage 80 g/ha): 100%
- Pre-emergence action against SETVI in % (Setaria viridis (SETVI) [11]; dosage 320 g/ha): 100%
- Pre-emergence action against VIOTR in % (Viola tricolor (VIOTR) [23]; 320 g/ha, Viola tricolor): 100%
- Pre-emergence action against VIOTR in % (Viola tricolor (VIOTR) [23]; dosage 80 g/ha): 100%
- Pre-emergence action against POLCO in % ([12]; dosage 80 g/ha): 90%
- Pre-emergence action against POLCO in % ([12]; dosage 320 g/ha): 100%
- Post-emergence action against ORYSA in % (Oryza sativa (ORYSA); 20 g/ha, effect vs untreated controls): 0%
- Post-emergence action against ORYSA in % (Oryza sativa (ORYSA); [28]): 0%
- Post-emergence action against ZEAMX in % (crop plant compatibility) (Zea mays (ZEAMX) [24]): 0%
- Post-emergence action against POLCO in % ([13]; dosage 80 g/ha): 90%
- Pre-emergence action against VERPE in % [14]: 100%
- Pre-emergence action against ECHCG in % [15]: 100%
- Pre-emergence action against LOLRI in % (Lolium rigidum (LOLRI) [16]): 100%
- Pre-emergence action against PHBPU in % [17]: 90%
- Post-emergence action against PHBPU in % ([18]; dosage 80 g/ha): 90%
- Pre-emergence action against ZEAMX in % (Zea mays (ZEAMX) [19]): 0%
- Post-emergence action against AVEFA in % (Avena fatua (AVEFA) [25]): 90%
- Post-emergence action against AMARE in % [20, 29]: 80%
- Post-emergence action against ABUTH in % [26]: 80%
- Pre-emergence action against MATIN in % [21]: 90%
- Post-emergence action against VIOTR in % (Viola tricolor (VIOTR) [22]; 80 g/ha): 90%

Source: US20240041042A1, “1-(PYRIDYL)-5-AZINYLPYRAZOLE DERIVATIVES, AND THEIR USE FOR CONTROL OF UNDESIRED PLANT GROWTH” (Bayer Aktiengesellschaft, priority 2020, published 2024)
